Assays:
Format in all cases: biochemical
cathepsin B = biological target: T1, cathepsin B (Homo sapiens, UniProt P07858); test: Cathepsin B enzyme inhibition in vitro (kinetic fluorescence assay); conditions: Ki(cathepsin B)/Ki(calpain) ratio
T1 construct: cathepsin B—isolated from human liver; purchased Calbiochem 219362; host or cells: human liver (tissue isolate)
Procedure, shortened: (§1)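 Kinetic fluorescence (ex 390/em 460 nm), RT. Calpain-I: 20 nM erythrocyte-derived, 100 μM Suc-Leu-Tyr-AMC, imidazole/CaCl2, pH 7.3. Cathepsins, pH 6.0 MES/EDTA/cysteine: B 0.25 nM liver, 100 μM Z-Phe-Arg-AMC; L 1 nM liver, 2 μM Z-Phe-Arg-AMC; S 0.5 nM recombinant, 20 μM Z-Val-Val-Arg-AMC. Cheng-Prusoff Ki, mean of 2–4 curves.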

cathepsin L = biological target: T2, cathepsin L (Homo sapiens, UniProt P07711); test: Cathepsin L enzyme inhibition in vitro (kinetic fluorescence assay); conditions: Ki(cathepsin L)/Ki(calpain) ratio
T2 construct: cathepsin L—isolated from human liver; purchased Calbiochem 219402; host or cells: human liver (tissue isolate)
T2 sequence (P07711 114-333): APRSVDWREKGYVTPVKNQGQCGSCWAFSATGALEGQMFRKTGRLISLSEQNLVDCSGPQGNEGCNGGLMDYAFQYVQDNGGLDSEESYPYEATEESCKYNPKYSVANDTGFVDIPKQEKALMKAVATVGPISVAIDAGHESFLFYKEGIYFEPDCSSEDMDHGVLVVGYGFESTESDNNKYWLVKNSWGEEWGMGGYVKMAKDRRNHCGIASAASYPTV
Procedure, shortened: as §1

cathepsin S = biological target: T3, cathepsin S (Homo sapiens, UniProt P25774); test: Cathepsin S enzyme inhibition in vitro (kinetic fluorescence assay); conditions: Ki(cathepsin S)/Ki(calpain) ratio
T3 construct: purchased Calbiochem 219343; host or cells: E. coli
T3 sequence (P25774 115-331): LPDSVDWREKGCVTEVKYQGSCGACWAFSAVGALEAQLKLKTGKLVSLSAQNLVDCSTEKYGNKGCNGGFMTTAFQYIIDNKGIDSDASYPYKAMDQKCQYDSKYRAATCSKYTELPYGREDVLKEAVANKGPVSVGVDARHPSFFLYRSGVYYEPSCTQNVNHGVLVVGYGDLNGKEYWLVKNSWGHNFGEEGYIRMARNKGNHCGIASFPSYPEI
Procedure, shortened: as §1

cathepsin K = biological target: T4, cathepsin K (Homo sapiens, UniProt P43235); test: Cathepsin K enzyme inhibition in vitro (kinetic fluorescence assay); conditions: Ki(cathepsin K)/Ki(calpain) ratio
T4 construct: purchased Calbiochem 342001; host or cells: E. coli
T4 sequence (P43235 115-329): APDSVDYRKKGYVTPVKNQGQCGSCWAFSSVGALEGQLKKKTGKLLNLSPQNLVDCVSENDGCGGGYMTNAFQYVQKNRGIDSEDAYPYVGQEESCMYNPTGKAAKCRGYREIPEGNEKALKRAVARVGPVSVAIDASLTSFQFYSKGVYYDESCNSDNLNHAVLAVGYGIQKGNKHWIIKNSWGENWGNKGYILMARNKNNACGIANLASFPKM

SMILES | Sel cat. B (cathepsin B) | Sel cat. L (cathepsin L) | Sel cat. S (cathepsin S) | Sel cat. K (cathepsin K)
NC(=O)C(=O)C(Cc1ccccc1)NC(=O)c1cccnc1-n1ccc(-c2ccc(F)cc2F)n1 (stereo not drawn) [Example 94, N-[3-Amino-2,3-dioxo-1-(phenylmethyl)propyl]-2-[3-(2,4-difluorophenyl)-1H-pyrazol-1-yl]pyridine-3-carboxamide] | ++ (++ means a Ki(cathepsin B)/Ki(calpain) ratio of ≧30) | ++ (++ means a Ki(cathepsin L)/Ki(calpain) ratio of ≧50) | ++ (++ means a Ki(cathepsin S)/Ki(calpain) ratio of ≧100) | + (+ means 10≦Ki(cathepsin K)/Ki(calpain)<30)
NC(=O)C(=O)C(Cc1ccccc1)NC(=O)c1cccnc1-n1ccc(-c2c(Cl)cccc2Cl)n1 (stereo not drawn) [Example 95, N-[3-Amino-2,3-dioxo-1-(phenylmethyl)propyl]-2-[3-(2,6-dichlorophenyl)-1H-pyrazol-1-yl]pyridine-3-carboxamide] | ++ (++ means a Ki(cathepsin B)/Ki(calpain) ratio of ≧30) | ++ (++ means a Ki(cathepsin L)/Ki(calpain) ratio of ≧50) | ++ (++ means a Ki(cathepsin S)/Ki(calpain) ratio of ≧100) | ++ (++ means a Ki(cathepsin K)/Ki(calpain) ratio of ≧30)
NC(=O)C(=O)C(Cc1ccccc1)NC(=O)c1cccnc1-n1ccc(-c2cccc(OCc3ccccc3)c2)n1 (stereo not drawn) [Example 96, N-[3-Amino-2,3-dioxo-1-(phenylmethyl)propyl]-2-(3-{3-[(phenylmethyl)oxy]phenyl}-1H-pyrazol-1-yl)pyridine-3-carboxamide] | ++ (++ means a Ki(cathepsin B)/Ki(calpain) ratio of ≧30) | ++ (++ means a Ki(cathepsin L)/Ki(calpain) ratio of ≧50) | ++ (++ means a Ki(cathepsin S)/Ki(calpain) ratio of ≧100) | ++ (++ means a Ki(cathepsin K)/Ki(calpain) ratio of ≧30)
COc1ccc(CC(NC(=O)c2cccnc2-n2ccc(-c3ccc(F)cc3F)n2)C(=O)C(N)=O)cc1 (stereo not drawn) [Example 97, N-(3-Amino-1-{[4-(methyloxy)phenyl]methyl}-2,3-dioxopropyl)-2-[3-(2,4-difluorophenyl)-1H-pyrazol-1-yl]pyridine-3-carboxamide] | ++ (++ means a Ki(cathepsin B)/Ki(calpain) ratio of ≧30) | ++ (++ means a Ki(cathepsin L)/Ki(calpain) ratio of ≧50) | ++ (++ means a Ki(cathepsin S)/Ki(calpain) ratio of ≧100) | + (+ means 10≦Ki(cathepsin K)/Ki(calpain)<30)
COc1ccc(CC(NC(=O)c2cccnc2-n2ccc(-c3ccc(Cl)cc3Cl)n2)C(=O)C(N)=O)cc1 (stereo not drawn) [Example 98, N-(3-Amino-1-{[4-(methyloxy)phenyl]methyl}-2,3-dioxopropyl)-2-[3-(2,4-dichlorophenyl)-1H-pyrazol-1-yl]pyridine-3-carboxamide] | ++ (++ means a Ki(cathepsin B)/Ki(calpain) ratio of ≧30) | ++ (++ means a Ki(cathepsin L)/Ki(calpain) ratio of ≧50) | ++ (++ means a Ki(cathepsin S)/Ki(calpain) ratio of ≧100) | ++ (++ means a Ki(cathepsin K)/Ki(calpain) ratio of ≧30)
NC(=O)C(=O)C(Cc1ccccc1)NC(=O)c1cccnc1-n1ccc(-c2ccc(N3CCOCC3)cc2Cl)n1 (stereo not drawn) [Example 99, N-[3-Amino-2,3-dioxo-1-(phenylmethyl)propyl]-2-[3-(2-chloro-4-morpholin-4-ylphenyl)-1H-pyrazol-1-yl]pyridine-3-carboxamide] | ++ (++ means a Ki(cathepsin B)/Ki(calpain) ratio of ≧30) | ++ (++ means a Ki(cathepsin L)/Ki(calpain) ratio of ≧50) | ++ (++ means a Ki(cathepsin S)/Ki(calpain) ratio of ≧100) | ++ (++ means a Ki(cathepsin K)/Ki(calpain) ratio of ≧30)
NC(=O)C(=O)C(Cc1ccccc1)NC(=O)c1cccnc1-n1cc2c(n1)-c1ccccc1OC2 (stereo not drawn) [Example 100, N-[3-Amino-2,3-dioxo-1-(phenylmethyl)propyl]-2-chromeno[4,3-c]pyrazol-2(4H)-ylpyridine-3-carboxamide] | + (+ means 10≦Ki(cathepsin B)/Ki(calpain)<30) | ++ (++ means a Ki(cathepsin L)/Ki(calpain) ratio of ≧50) | ++ (++ means a Ki(cathepsin S)/Ki(calpain) ratio of ≧100) | ++ (++ means a Ki(cathepsin K)/Ki(calpain) ratio of ≧30)
NC(=O)C(=O)C(Cc1ccccc1)NC(=O)c1cccnc1-n1ccc(-c2ccc(N3CCOCC3)cc2F)n1 (stereo not drawn) [Example 102, N-[3-Amino-2,3-dioxo-1-(phenylmethyl)propyl]-2-[3-(2-fluoro-4-morpholin-4-ylphenyl)-1H-pyrazol-1-yl]pyridine-3-carboxamide] | + (+ means 10≦Ki(cathepsin B)/Ki(calpain)<30) | ++ (++ means a Ki(cathepsin L)/Ki(calpain) ratio of ≧50) | ++ (++ means a Ki(cathepsin S)/Ki(calpain) ratio of ≧100) | ++ (++ means a Ki(cathepsin K)/Ki(calpain) ratio of ≧30)
NC(=O)C(=O)C(Cc1ccccc1)NC(=O)c1cccnc1-n1ccc(-c2ccc(Cl)s2)n1 (stereo not drawn) [Example 103, N-[3-Amino-2,3-dioxo-1-(phenylmethyl)propyl]-2-[3-(5-chloro-2-thienyl)-1H-pyrazol-1-yl]pyridine-3-carboxamide] | + (+ means 10≦Ki(cathepsin B)/Ki(calpain)<30) | ++ (++ means a Ki(cathepsin L)/Ki(calpain) ratio of ≧50) | ++ (++ means a Ki(cathepsin S)/Ki(calpain) ratio of ≧100) | + (+ means 10≦Ki(cathepsin K)/Ki(calpain)<30)
NC(=O)C(=O)[C@H](Cc1ccccc1)NC(=O)c1cccnc1-n1ccc(-c2ccccc2)n1 [Example 107, N-[(1S)-3-Amino-2,3-dioxo-1-(phenylmethyl)propyl]-2-(3-phenyl-1H-pyrazol-1-yl)pyridine-3-carboxamide] | + (+ means 10≦Ki(cathepsin B)/Ki(calpain)<30) | ++ (++ means a Ki(cathepsin L)/Ki(calpain) ratio of ≧50) | ++ (++ means a Ki(cathepsin S)/Ki(calpain) ratio of ≧100) | + (+ means 10≦Ki(cathepsin K)/Ki(calpain)<30)
NC(=O)C(=O)C(Cc1ccccc1)NC(=O)c1cccnc1-n1ccc(-c2sccc2Cl)n1 (stereo not drawn) [Example 109, N-[3-Amino-2,3-dioxo-1-(phenylmethyl)propyl]-2-[3-(3-chloro-2-thienyl)-1H-pyrazol-1-yl]pyridine-3-carboxamide] | ++ (++ means a Ki(cathepsin B)/Ki(calpain) ratio of ≧30) | ++ (++ means a Ki(cathepsin L)/Ki(calpain) ratio of ≧50) | ++ (++ means a Ki(cathepsin S)/Ki(calpain) ratio of ≧100) | ++ (++ means a Ki(cathepsin K)/Ki(calpain) ratio of ≧30)
NC(=O)C(=O)C(Cc1ccccc1)NC(=O)c1cccnc1-n1ccc(-c2cccc3ccccc23)n1 (stereo not drawn) [Example 110, N-[3-Amino-2,3-dioxo-1-(phenylmethyl)propyl]-2-(3-naphthalen-1-yl-1H-pyrazol-1-yl)pyridine-3-carboxamide] | ++ (++ means a Ki(cathepsin B)/Ki(calpain) ratio of ≧30) | ++ (++ means a Ki(cathepsin L)/Ki(calpain) ratio of ≧50) | ++ (++ means a Ki(cathepsin S)/Ki(calpain) ratio of ≧100) | ++ (++ means a Ki(cathepsin K)/Ki(calpain) ratio of ≧30)
COc1ccc(CC(NC(=O)c2cccnc2-n2ccc(-c3ccc(F)cc3Cl)n2)C(=O)C(N)=O)cc1 (stereo not drawn) [Example 111, N-(3-Amino-1-{[4-(methyloxy)phenyl]methyl}-2,3-dioxopropyl)-2-[3-(2-chloro-4-fluorophenyl)-1H-pyrazol-1-yl]pyridine-3-carboxamide] | ++ (++ means a Ki(cathepsin B)/Ki(calpain) ratio of ≧30) | ++ (++ means a Ki(cathepsin L)/Ki(calpain) ratio of ≧50) | ++ (++ means a Ki(cathepsin S)/Ki(calpain) ratio of ≧100) | ++ (++ means a Ki(cathepsin K)/Ki(calpain) ratio of ≧30)
NC(=O)C(=O)C(Cc1ccccc1)NC(=O)c1cccnc1-n1ccc(-c2cc(Cl)ccc2Cl)n1 (stereo not drawn) [Example 112, N-[3-Amino-2,3-dioxo-1-(phenylmethyl)propyl]-2-[3-(2,5-dichlorophenyl)-1H-pyrazol-1-yl]pyridine-3-carboxamide] | ++ (++ means a Ki(cathepsin B)/Ki(calpain) ratio of ≧30) | ++ (++ means a Ki(cathepsin L)/Ki(calpain) ratio of ≧50) | ++ (++ means a Ki(cathepsin S)/Ki(calpain) ratio of ≧100) | ++ (++ means a Ki(cathepsin K)/Ki(calpain) ratio of ≧30)
NC(=O)C(=O)C(Cc1ccc(F)cc1)NC(=O)c1cccnc1-n1ccc(-c2ccc(Cl)cc2Cl)n1 (stereo not drawn) [Example 114, N-{-3-Amino-1-[(4-fluorophenyl)methyl]-2,3-dioxopropyl}-2-[3-(2,4-dichlorophenyl)-1H-pyrazol-1-yl]pyridine-3-carboxamide] | ++ (++ means a Ki(cathepsin B)/Ki(calpain) ratio of ≧30) | ++ (++ means a Ki(cathepsin L)/Ki(calpain) ratio of ≧50) | ++ (++ means a Ki(cathepsin S)/Ki(calpain) ratio of ≧100) | ++ (++ means a Ki(cathepsin K)/Ki(calpain) ratio of ≧30)

— patent US9139557B2, “Carboxamide compounds and their use as calpain inhibitors” (Abbott GmbH & Co. KG, priority 2006, dated 2015)
